The text below walks through data of patent publication US10781185B2, “Heterocyclic compounds for the inhibition of PASK” (BioEnergenix LLC, priority 2009, dated 2020).

The target of experiment [1] is PASK (Homo sapiens (Human), UniProt Q96RG2). In words: PAS Kinase Luminescence Assay (Kinase-Glo). Conditions: purified hPASK from insect cells, read-out: IC50 Kinase Domain. It is filed as biochemical. As to the method:
Biochemical Assay for hPASK Activity
PAS Kinase Luminescence Assay
One assay for purified hPASK activity utilizes the Kinase-Glo Luminescent Kinase Assay (Promega), which quantifies the amount of ATP remaining in solution following kinase reaction. The assay is carried out in a 96-well plate format and is performed by adding a volume of Kinase-Glo Reagent (Promega, catalog # V3771) equal to the volume of solution in the well of a completed kinase reaction. Kinase-Glo reagent contains Luciferase and its substrate. After addition to a kinase reaction it allows to measure luminescence. The amount of ATP left in solution at the time of Kinase-Glo Plus addition is directly proportional to the luminescence that is measured in each well, and inversely correlated with kinase activity.
Purified hPASK from insect cells (0.02 μg) is added to a 50 μL reaction mix containing 40 mM HEPES (pH 7.0), 100 mM KCl, 5 mM MgCl2, 1 mM DTT and […] of MBP protein. Inhibitory compounds are then added and the mixture is incubated for 10 min at 25° C. before adding 5 μL of ATP (at desired concentration). The reaction is allowed to proceed at 25° C. for 1 hour before adding 50 μL of Kinase-Glo reagent. The luminescence is measured as soon as 10 minutes after Kinase-Glo reagent is added.
On the technique in general: Kinase-Glo reads ATP consumption through a luciferase reaction.

For experiment [2], the target named is PASK (UniProt # Q96RG2; human recombinant N-terminal GST tagged construct, residues 879-1323) (Homo sapiens (Human), UniProt Q96RG2). In words: PASK ATP Radiochemical Assay. Particulars: 33P-ATP radiochemical, Myelin Basic Protein substrate; read-out: IC50 Kinase Domain. It is filed as biochemical. As to the method:
PASK ATP Radiochemical Assay
Test compounds in DMSO are then added and the mixture, followed by delivery of ^33P-ATP (specific activity 0.01 μCi/μl final) to initiate the reaction. […] The entire reaction mixture is washed through onto a P81 Phosphocellulose paper and washed three times for 10 minutes in 75 mM phosphoric acid and once in methanol prior to drying and scintillation counting.

Chain of PASK (UniProt # Q96RG2; human recombinant N-terminal GST tagged construct, residues 879-1323) (Homo sapiens (Human), UniProt Q96RG2) (Q96RG2 879-1323, change not shown): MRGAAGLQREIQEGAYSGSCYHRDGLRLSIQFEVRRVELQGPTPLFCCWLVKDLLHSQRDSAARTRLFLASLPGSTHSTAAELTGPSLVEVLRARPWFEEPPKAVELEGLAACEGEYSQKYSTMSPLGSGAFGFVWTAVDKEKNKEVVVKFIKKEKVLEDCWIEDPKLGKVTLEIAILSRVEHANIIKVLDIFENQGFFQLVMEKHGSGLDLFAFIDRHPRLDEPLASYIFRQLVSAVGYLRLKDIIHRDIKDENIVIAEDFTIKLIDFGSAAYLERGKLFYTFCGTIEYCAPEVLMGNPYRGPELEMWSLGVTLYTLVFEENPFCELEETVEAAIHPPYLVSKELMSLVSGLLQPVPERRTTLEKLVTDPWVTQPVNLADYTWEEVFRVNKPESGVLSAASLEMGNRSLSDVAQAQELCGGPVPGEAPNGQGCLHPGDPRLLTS
Chain of PASK (Homo sapiens (Human), UniProt Q96RG2) (Q96RG2 999-1251): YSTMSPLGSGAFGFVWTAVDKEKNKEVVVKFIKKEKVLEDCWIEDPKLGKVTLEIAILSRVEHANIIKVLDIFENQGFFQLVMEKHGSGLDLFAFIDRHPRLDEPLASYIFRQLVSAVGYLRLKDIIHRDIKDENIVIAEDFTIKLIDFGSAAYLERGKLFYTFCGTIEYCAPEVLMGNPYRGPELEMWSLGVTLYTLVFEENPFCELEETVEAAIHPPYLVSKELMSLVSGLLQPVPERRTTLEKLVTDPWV

Turning to `O=C(O)c1ccc2nc(N3CCC(c4ccc(C(F)(F)F)cc4)CC3)c(-c3ccc(F)cc3)nc2c1` [Example 29, 3-(4-Fluorophenyl)-2-(4-(4-(trifluoromethyl)phenyl)piperidin-1-yl)quinoxaline-6-carboxylic acid], the results for the IC50 on PASK [1] and at PASK [2] were below 10 µM and above 10 µM, respectively.

On to `COc1ccc(C2CCN(c3nc4ccc(C(=O)O)cc4nc3-c3ccc(F)cc3)CC2)cc1` [Example 26, 3-(4-Fluorophenyl)-2-(4-(4-methoxyphenyl)piperidin-1-yl)quinoxaline-6-carboxylic acid], for which the IC50 at PASK [1] and on PASK [2] was below 10 µM throughout.

Consider `O=C(O)c1ccc2nc(-c3ccccc3)c(N3CCN(c4ccc(C(F)(F)F)cn4)CC3)nc2c1` [Example 20, 2-Phenyl-3-(4-(5-(trifluoromethyl)pyridin-2-yl)piperazin-1-yl)quinoxaline-6-carboxylic acid], for which the concentration for half-maximal inhibition (IC50) on PASK [1] and at PASK [2] was below 10 µM each time.

The IC50 is the concentration needed to halve the response being measured.
